# Measured values: the supplement of paper PMC4862054
# Legend:
# Assay in all cases: normalised viability (% of control), CellTiter-Blue; higher = more viable cells (about 100 = DMSO control)
# Details in all cases: incubation time: 72 h
# MDA-MB-453 [1] = test system: MDA-MB-453
# In short: (§1)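 Compound dissolved in 5 µl medium was pre-loaded into 384-well plates, and breast cancer cell lines in 20 µl suspension were seeded on top and incubated 72 h. After adding 2.5 µl CellTiter-Blue reagent for 2 h at 37 °C, fluorescence was read at 560/590 nm. Plates were normalised to vehicle (100) and a positive kill control (0), with Z'-factor quality control. Each value is normalised viability at a single listed concentration from the series.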
# CAL-148 [2] = test system: CAL-148
# In short: as §1
# DU-4475 [3] = test system: DU-4475
# In short: as §1
# CAL-85-1 [4] = test system: CAL-85-1
# In short: as §1
# MDA-MB-453 [5] = test system: MDA-MB-453; remark: listed apart in the source
# Experimental: (§2)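 DSRT, CellTiter-Blue viability, 72 h incubation. Signal is normalised to DMSO and benzethonium chloride controls. Value is the normalised response at dose 9.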
# HDQ-P1 = test system: HDQ-P1
# Experimental: as §2
# CAL-148 [6] = test system: CAL-148; remark: listed apart in the source
# Experimental: as §2
# DU-4475 [7] = test system: DU-4475; remark: listed apart in the source
# Experimental: as §2
# CAL-85-1 [8] = test system: CAL-85-1; remark: listed apart in the source
# Experimental: as §2
# CAL-51 [9] = test system: CAL-51
# Experimental: as §2
# HCC1599 = test system: HCC1599
# In short: as §1
# MDA-MB-231 = test system: MDA-MB-231
# In short: as §1
# BT-549 = test system: BT-549
# In short: as §1
# MDA-MB-453 [10] = test system: MDA-MB-453; remark: listed apart in the source
# In short: as §1
# MDA-MB-468 = test system: MDA-MB-468
# In short: as §1
# HCC1937 = test system: HCC1937
# In short: as §1
# DU-4475 [11] = test system: DU-4475; remark: listed apart in the source
# In short: as §1
# MFM-223 = test system: MFM-223
# In short: as §1
# CAL-85-1 [12] = test system: CAL-85-1; remark: listed apart in the source
# In short: as §1
# CAL-120 = test system: CAL-120
# In short: as §1
# SK-BR-3 = test system: SK-BR-3
# In short: as §1
# Hs578T = test system: Hs578T
# In short: as §1
# BT-474 = test system: BT-474
# In short: as §1
# CAL-51 [13] = test system: CAL-51; remark: listed apart in the source
# In short: as §1
# MDA-MB-436 = test system: MDA-MB-436
# In short: as §1
# HCC1143 = test system: HCC1143
# In short: as §1
smiles,measurement,setting,value
C=CC(=O)N1CCC[C@@H](n2nc(-c3ccc(Oc4ccccc4)cc3)c3c(N)ncnc32)C1,normalised viability,MDA-MB-453 [1]; 300 nM,26.9%
same,normalised viability,CAL-148 [2]; 300 nM,84.6%
same,normalised viability,DU-4475 [3]; 300 nM,96.1%
same,normalised viability,CAL-85-1 [4]; 300 nM,57.1%
same,normalised viability,MDA-MB-453 [5]; 1000 nM,26.5%
same,normalised viability,HDQ-P1; 1000 nM,69.1%
same,normalised viability,CAL-148 [6]; 1000 nM,76.3%
same,normalised viability,DU-4475 [7]; 1000 nM,97.8%
same,normalised viability,CAL-85-1 [8]; 1000 nM,49.1%
same,normalised viability,CAL-51 [9]; 1000 nM,86.5%
same,normalised viability,HCC1599; 1 nM,104%
same,normalised viability,HCC1599; 100 nM,83.3%
same,normalised viability,HCC1599; 1000 nM,82.6%
same,normalised viability,MDA-MB-231; 1 nM,102%
same,normalised viability,MDA-MB-231; 100 nM,101%
same,normalised viability,MDA-MB-231; 1000 nM,111%
same,normalised viability,BT-549; 1 nM,96.6%
same,normalised viability,BT-549; 100 nM,109%
same,normalised viability,BT-549; 1000 nM,118%
same,normalised viability,MDA-MB-453 [10]; 0.3 nM,112%
same,normalised viability,MDA-MB-453 [10]; 3 nM,92.4%
same,normalised viability,MDA-MB-453 [10]; 10 nM,77.3%
same,normalised viability,MDA-MB-468; 1 nM,99.9%
same,normalised viability,MDA-MB-468; 100 nM,78.3%
same,normalised viability,MDA-MB-468; 1000 nM,69.3%
same,normalised viability,HCC1937; 1 nM,94.8%
same,normalised viability,HCC1937; 100 nM,101%
same,normalised viability,HCC1937; 1000 nM,89.7%
same,normalised viability,DU-4475 [11]; 0.3 nM,91.8%
same,normalised viability,DU-4475 [11]; 3 nM,87.4%
same,normalised viability,DU-4475 [11]; 10 nM,86.8%
same,normalised viability,MFM-223; 1 nM,92.1%
same,normalised viability,MFM-223; 100 nM,83%
same,normalised viability,MFM-223; 1000 nM,56.6%
same,normalised viability,CAL-85-1 [12]; 0.3 nM,87.8%
same,normalised viability,CAL-85-1 [12]; 3 nM,84.6%
same,normalised viability,CAL-85-1 [12]; 10 nM,96.9%
same,normalised viability,CAL-120; 1 nM,86.4%
same,normalised viability,CAL-120; 100 nM,86.4%
same,normalised viability,CAL-120; 1000 nM,97%
same,normalised viability,SK-BR-3; 1 nM,91.9%
same,normalised viability,SK-BR-3; 100 nM,24.9%
same,normalised viability,SK-BR-3; 1000 nM,21.7%
same,normalised viability,Hs578T; 1 nM,123%
same,normalised viability,Hs578T; 100 nM,123%
same,normalised viability,Hs578T; 1000 nM,112%
same,normalised viability,BT-474; 1 nM,124%
same,normalised viability,BT-474; 100 nM,45.9%
same,normalised viability,BT-474; 1000 nM,42.1%
same,normalised viability,CAL-51 [13]; 0.3 nM,95.9%
same,normalised viability,CAL-51 [13]; 3 nM,91%
same,normalised viability,CAL-51 [13]; 10 nM,94.3%
same,normalised viability,MDA-MB-436; 1 nM,106%
same,normalised viability,MDA-MB-436; 100 nM,85.8%
same,normalised viability,MDA-MB-436; 1000 nM,94.8%
same,normalised viability,HCC1143; 1 nM,76%
same,normalised viability,HCC1143; 100 nM,79%
same,normalised viability,HCC1143; 1000 nM,81.8%
CC(=O)Nc1cccc(-n2c(=O)n(C3CC3)c(=O)c3c(Nc4ccc(I)cc4F)n(C)c(=O)c(C)c32)c1,normalised viability,MDA-MB-453 [1]; 75 nM,72.8%
same,normalised viability,CAL-148 [2]; 75 nM,85.2%
same,normalised viability,DU-4475 [3]; 75 nM,-1.23%
same,normalised viability,CAL-85-1 [4]; 75 nM,38.8%
same,normalised viability,MDA-MB-453 [5]; 250 nM,50.9%
same,normalised viability,HDQ-P1; 250 nM,63.6%
same,normalised viability,CAL-148 [6]; 250 nM,87.6%
same,normalised viability,DU-4475 [7]; 250 nM,-1.53%
same,normalised viability,CAL-85-1 [8]; 250 nM,31.2%
same,normalised viability,CAL-51 [9]; 250 nM,60.5%
same,normalised viability,HCC1599; 0.25 nM,93.1%
same,normalised viability,HCC1599; 25 nM,69.8%
same,normalised viability,HCC1599; 250 nM,50.1%
same,normalised viability,MDA-MB-231; 0.25 nM,101%
same,normalised viability,MDA-MB-231; 25 nM,39.6%
same,normalised viability,MDA-MB-231; 250 nM,38.7%
same,normalised viability,BT-549; 0.25 nM,87.6%
same,normalised viability,BT-549; 25 nM,92.3%
same,normalised viability,BT-549; 250 nM,86.2%
same,normalised viability,MDA-MB-453 [10]; 0.075 nM,107%
same,normalised viability,MDA-MB-453 [10]; 0.75 nM,113%
same,normalised viability,MDA-MB-453 [10]; 2.5 nM,128%
same,normalised viability,MDA-MB-468; 0.25 nM,110%
same,normalised viability,MDA-MB-468; 25 nM,92.6%
same,normalised viability,MDA-MB-468; 250 nM,74.7%
same,normalised viability,HCC1937; 0.25 nM,132%
same,normalised viability,HCC1937; 25 nM,112%
same,normalised viability,HCC1937; 250 nM,89.2%
same,normalised viability,DU-4475 [11]; 0.075 nM,117%
same,normalised viability,DU-4475 [11]; 0.75 nM,59.7%
same,normalised viability,DU-4475 [11]; 2.5 nM,10.8%
same,normalised viability,MFM-223; 0.25 nM,98.8%
same,normalised viability,MFM-223; 25 nM,84.5%
same,normalised viability,MFM-223; 250 nM,64.4%
same,normalised viability,CAL-85-1 [12]; 0.075 nM,102%
same,normalised viability,CAL-85-1 [12]; 0.75 nM,93.6%
same,normalised viability,CAL-85-1 [12]; 2.5 nM,97%
same,normalised viability,CAL-120; 0.25 nM,113%
same,normalised viability,CAL-120; 25 nM,68.1%
same,normalised viability,CAL-120; 250 nM,47.6%
same,normalised viability,SK-BR-3; 0.25 nM,111%
same,normalised viability,SK-BR-3; 25 nM,111%
same,normalised viability,SK-BR-3; 250 nM,97.7%
same,normalised viability,Hs578T; 0.25 nM,129%
same,normalised viability,Hs578T; 25 nM,84.8%
same,normalised viability,Hs578T; 250 nM,83%
same,normalised viability,BT-474; 0.25 nM,118%
same,normalised viability,BT-474; 25 nM,111%
same,normalised viability,BT-474; 250 nM,122%
same,normalised viability,CAL-51 [13]; 0.075 nM,103%
same,normalised viability,CAL-51 [13]; 0.75 nM,89.4%
same,normalised viability,CAL-51 [13]; 2.5 nM,84.4%
same,normalised viability,MDA-MB-436; 0.25 nM,104%
same,normalised viability,MDA-MB-436; 25 nM,97.8%
same,normalised viability,MDA-MB-436; 250 nM,95%
same,normalised viability,HCC1143; 0.25 nM,124%
same,normalised viability,HCC1143; 25 nM,71%
same,normalised viability,HCC1143; 250 nM,64.6%
CCc1cncnc1N1CCN(Cc2nc3ccc(C(F)(F)F)cc3[nH]2)CC1,normalised viability,MDA-MB-453 [1]; 3000 nM,88.7%
same,normalised viability,CAL-148 [2]; 3000 nM,104%
same,normalised viability,DU-4475 [3]; 3000 nM,100%
same,normalised viability,CAL-85-1 [4]; 3000 nM,100%
same,normalised viability,MDA-MB-453 [5]; 10000 nM,54.6%
same,normalised viability,HDQ-P1; 10000 nM,110%
same,normalised viability,CAL-148 [6]; 10000 nM,108%
same,normalised viability,DU-4475 [7]; 10000 nM,91.8%
same,normalised viability,CAL-85-1 [8]; 10000 nM,110%
same,normalised viability,CAL-51 [9]; 10000 nM,64%
same,normalised viability,HCC1599; 10 nM,77.2%
same,normalised viability,HCC1599; 1000 nM,83%
same,normalised viability,HCC1599; 10000 nM,90.2%
same,normalised viability,MDA-MB-231; 10 nM,96.9%
same,normalised viability,MDA-MB-231; 1000 nM,98.2%
same,normalised viability,MDA-MB-231; 10000 nM,106%
same,normalised viability,BT-549; 10 nM,78.4%
same,normalised viability,BT-549; 1000 nM,102%
same,normalised viability,BT-549; 10000 nM,59.9%
same,normalised viability,MDA-MB-453 [10]; 3 nM,101%
same,normalised viability,MDA-MB-453 [10]; 30 nM,110%
same,normalised viability,MDA-MB-453 [10]; 100 nM,103%
same,normalised viability,MDA-MB-468; 10 nM,107%
same,normalised viability,MDA-MB-468; 1000 nM,108%
same,normalised viability,MDA-MB-468; 10000 nM,103%
same,normalised viability,HCC1937; 10 nM,108%
same,normalised viability,HCC1937; 1000 nM,107%
same,normalised viability,HCC1937; 10000 nM,86.8%
same,normalised viability,DU-4475 [11]; 3 nM,103%
same,normalised viability,DU-4475 [11]; 30 nM,91.6%
same,normalised viability,DU-4475 [11]; 100 nM,107%
same,normalised viability,MFM-223; 10 nM,103%
same,normalised viability,MFM-223; 1000 nM,122%
same,normalised viability,MFM-223; 10000 nM,82.7%
same,normalised viability,CAL-85-1 [12]; 3 nM,102%
same,normalised viability,CAL-85-1 [12]; 30 nM,97.4%
same,normalised viability,CAL-85-1 [12]; 100 nM,101%
same,normalised viability,CAL-120; 10 nM,104%
same,normalised viability,CAL-120; 1000 nM,135%
same,normalised viability,CAL-120; 10000 nM,132%
same,normalised viability,SK-BR-3; 10 nM,105%
same,normalised viability,SK-BR-3; 1000 nM,104%
same,normalised viability,SK-BR-3; 10000 nM,117%
same,normalised viability,Hs578T; 10 nM,95.4%
same,normalised viability,Hs578T; 1000 nM,122%
same,normalised viability,Hs578T; 10000 nM,88.8%
same,normalised viability,BT-474; 10 nM,115%
same,normalised viability,BT-474; 1000 nM,118%
same,normalised viability,BT-474; 10000 nM,83.7%
same,normalised viability,CAL-51 [13]; 3 nM,94.3%
same,normalised viability,CAL-51 [13]; 30 nM,90%
same,normalised viability,CAL-51 [13]; 100 nM,91.5%
same,normalised viability,MDA-MB-436; 10 nM,107%
same,normalised viability,MDA-MB-436; 1000 nM,106%
same,normalised viability,MDA-MB-436; 10000 nM,91.7%
same,normalised viability,HCC1143; 10 nM,103%
same,normalised viability,HCC1143; 1000 nM,106%
same,normalised viability,HCC1143; 10000 nM,109%
